Experimental data: patent US6992193B2, “Sulfonylamino phenylacetamide derivatives and methods of their use” (Adolor Corporation, priority 2003, dated 2006)
Counter-ions that a name gives are not always drawn. Like-named read-outs stand apart in the source and are kept apart here.

How the values were obtained:
[1] = molecular target: T1, cloned human δ opioid receptor (Homo sapiens, UniProt P41143); experiment: [3H]diprenorphine binding to cloned human δ opioid receptor
T1 construct: expressed in transfected cells
Method: (§1) IC50 values were obtained by nonlinear analysis of the data using GraphPad Prism version 3.00 for Windows (GraphPad Software, San Diego). Ki values were obtained by Cheng-Prusoff corrections of IC50 values.
(§2) After dilution in buffer A and homogenization as before, membrane proteins (10-80 μg) in 250 μL were added to mixtures containing test compound and [^3H]diprenorphine (0.5 to 1.0 nM, 40,000 to 50,000 dpm) in 250 μL of buffer A in 96-well deep-well polystyrene titer plates (Beckman). After incubation at room temperature for one hour, the samples were filtered through GF/B filters that had been presoaked in a solution of 0.5% (w/v) polyethylenimine and 0.1% (w/v) bovine serum albumin in water. The filters were rinsed 4 times with 1 mL of cold 50 mM Tris HCl, pH 7.8 and radioactivity remaining on the filters determined by scintillation spectroscopy. Nonspecific binding was determined by the minimum values of the titration curves and was confirmed by separate assay wells containing 10 μM naloxone.
(§3) To determine the equilibrium dissociation constant for the inhibitors (Ki), radioligand bound (cpm) in the presence of various concentrations of test compounds was measured. […] The nonlinear regression fit was performed using the program Prism® (GraphPad Software, San Diego, Calif.). The Ki values were then determined from the […] values by the following equation, [formula] • where [ligand] is the concentration of radioligand; and • Kd is the equilibrium dissociation constant for the radioligand.

cloned human κ receptors = molecular target: T2, cloned human κ receptors (Homo sapiens, UniProt P41145); experiment: [35S]GTPγS binding stimulation, membranes containing cloned human κ receptors; type: biochemical; details: half-maximal stimulation of [35S]GTPγS binding, cloned human κ receptor
T2 construct: expressed in transfected cells
Method: The potencies of the agonists were assessed by their abilities to stimulate [^35S]GTPγS binding to membranes containing the cloned human κ receptors.
To determine the EC50 value, which was the concentration to give half-maximal stimulation of [^35S]GTPγS binding, the amount of [^35S]GTPγS bound in the presence of various concentrations of agonists was measured. The EC50 value was then determined.

[2] = molecular target: T3, cloned human μ opioid receptor (Homo sapiens, UniProt P35372); experiment: [3H]diprenorphine binding to cloned human μ opioid receptor
T3 construct: expressed in transfected cells
Method: as §1, §2, §3

CYP2C9 = CYP2C9 (Homo sapiens, UniProt P11712); experiment: Inhibition of CYP2C9 conversion of dibenzylfluorescein to fluorescein; type: in vitro ADME; details: DBF to fluorescein conversion; read-out: IC50(CYP2C9)
Method: (§4) Inhibition of CYP2C9 and CYP3A4
(§5) These assays were carried out as described using CYP2C9 and CYP3A4 conversion of dibenzylfluorescein (DBF) to fluorescein (F).

CYP3A4 = CYP3A4 (Homo sapiens, UniProt P08684); experiment: Inhibition of CYP3A4 conversion of dibenzylfluorescein to fluorescein; type: in vitro ADME; details: DBF to fluorescein conversion; read-out: IC50(CYP3A4)
Method: as §4, §5

[3] = molecular target: T4, cloned human κ opioid receptor (Homo sapiens, UniProt P41145); experiment: [3H]diprenorphine binding to cloned human κ opioid receptor
T4 construct: expressed in transfected cells
Method: as §1, §2
To determine the equilibrium dissociation constant for the inhibitors (Ki), radioligand bound (cpm) in the presence of various concentrations of test compounds was measured. […] The nonlinear regression fit was performed using the program Prism® (GraphPad Software, San Diego, Calif.).

CYP2D6 = molecular target: T5, CYP2D6 (Homo sapiens, UniProt P10635); experiment: Inhibition of CYP2D6 catalyzed conversion of MAMC to HAMC; type: in vitro ADME; details: MAMC to HAMC conversion; for IC50: read-out: IC50(CYP2D6)
T5 construct: purchased BD Biosciences
Method: Inhibition of CYP2D6 Catalyzed Conversion of MAMC to HAMC
Microsomes containing baculovirus expressed human recombinant CYP2D6 and MAMC were purchased from BD Biosciences. The method is a modification of the method provided by BD Biosciences.
• Assay Buffer=50 mM KPO4, 15 μg/mL NADP^+, 0.30 mg/mL glucose-6-phosphate, 0.20 mg/mL MgCl2, 0.96 U/mL glucose-6-phosphate dehydrogenase, 2.5 μM MAMC, pH 7.4. • Dilution Buffer=50 mM KPO4, pH 7.4 • Enzyme Buffer=150 mM KPO4, pH 7.4 • Stop Solution=80% acetonitrile, 20% 0.5 M Tris Base Procedure:
The assays were done in black 96 well plates (VWR Cat# 22221-572) and contained: 40 μL assay buffer, 10 μL test compound in dilution buffer and 50 μL of 10-15 pmol/mL CYP2D6 in enzyme buffer. Final concentrations: (100 mM KPO4, pH 7.4, 7.9 μM NADP^+, 0.36 mM glucose-6-phosphate, 0.4 mM MgCl2, 0.38 U/mL glucose-6-phosphate dehydrogenase, 1 μM MAMC (BD Biosciences), 0.5 pmol CYP2D6 (BD Biosciences))
For large experiments, assay buffer and test compound were added using the MiniTrak IV (Packard Biosciences), otherwise they were added using 25-250 μL and 5-100 μL 8 channel electronic pipettors (BioHit). CYP2D6 was added using 25-250 μL 8 channel electronic pipettor.
Titrations are done in either 96 well deep-well plates (Beckman) or 96 well microtiter plates (Costar), an initial dilution in dilution buffer is prepared from stock solutions in DMSO to start either 8 (1:6) or 12 (1:3.15) serial dilutions. For 1:6 dilutions, 50 μL for each dilution is transferred to 250 μL dilution buffer. For 1:3.15 dilutions, 50 μL for each dilution is transferred to 108 μL dilution buffer. Further details on concentrations will be provided in each experiment. Titrations are done using either 25-250 μL 8 channel electronic pipettor, 30-300 μL 12 channel manual pipettor (Spectrum), or the Multiprobe II. For screening, dilution plates are prepared in dilution buffer in 96 well microtiter plates from masterplates in 100% DMSO using the Multiprobe II or MiniTrak IV. After assay buffer and test compound has been added, the plates and the enzyme buffer are prewarmed at 37° C. for 15 minutes. After prewarming, CYP2D6 is added to then enzyme buffer and then added to the assay plate using 25-250 μL 8 channel electronic pipettor and the plates are incubated for 15 minutes at 37° C. After incubation, 50 μL stop solution is added using 25-250 μL 8 channel electronic pipettor. The plates are then counted on the Fusion (Packard Biosciences) for 4 sec/well using and excitation filter of 390 nm and an emission filter of 460 nm, intensity setting of 1, high detector sensitivity.
Non-specific relative fluorescent units (RFU) are determined in the presence of 10 μM quinidine in wells A1, B1, and C1 of each plate and total RFU determined in wells D1, E1, F1 in the absence of test compound. Specific HAMC production is the difference between total and nonspecific. For each compound, a percent inhibition of HAMC production is calculated by: % I=(1−(A/B))*100 • where A=cpm specifically bound for test compound • B=cpm specifically bound in the absence of test compound For experiments where the plates are registered in the biological database, % I is determined automatically by the biological database. Titrations
IC50's are calculated using nonlinear regression to a one-site model using GraphPad Prism or a VB algorithm fitting the data to that equation.

[4] = system: cytochrome P450 enzymes (CYP2D6, CYP3A4, CYP2C9); experiment: Overall evaluation of inhibition of major drug metabolizing hepatic cytochrome P450 enzymes; type: in vitro ADME, human
[5] = inhibition of [3H]diprenorphine binding, cloned human μ receptor, read-out: Ki(μ)

CYP3A4, sequence (P08684 whole entry): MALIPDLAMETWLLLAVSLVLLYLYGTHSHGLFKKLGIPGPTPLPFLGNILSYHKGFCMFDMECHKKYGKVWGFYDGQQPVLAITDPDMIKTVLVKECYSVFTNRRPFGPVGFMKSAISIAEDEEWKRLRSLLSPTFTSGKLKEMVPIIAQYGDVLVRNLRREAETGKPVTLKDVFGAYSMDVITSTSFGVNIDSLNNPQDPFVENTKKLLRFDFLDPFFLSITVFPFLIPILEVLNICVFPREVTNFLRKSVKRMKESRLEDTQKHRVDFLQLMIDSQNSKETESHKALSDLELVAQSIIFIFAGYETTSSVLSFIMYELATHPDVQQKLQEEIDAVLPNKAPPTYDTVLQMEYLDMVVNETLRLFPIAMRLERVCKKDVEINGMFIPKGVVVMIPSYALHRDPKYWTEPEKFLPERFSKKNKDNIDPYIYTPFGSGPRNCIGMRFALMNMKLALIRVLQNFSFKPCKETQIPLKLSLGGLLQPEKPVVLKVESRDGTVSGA
T3 sequence (P35372 whole entry): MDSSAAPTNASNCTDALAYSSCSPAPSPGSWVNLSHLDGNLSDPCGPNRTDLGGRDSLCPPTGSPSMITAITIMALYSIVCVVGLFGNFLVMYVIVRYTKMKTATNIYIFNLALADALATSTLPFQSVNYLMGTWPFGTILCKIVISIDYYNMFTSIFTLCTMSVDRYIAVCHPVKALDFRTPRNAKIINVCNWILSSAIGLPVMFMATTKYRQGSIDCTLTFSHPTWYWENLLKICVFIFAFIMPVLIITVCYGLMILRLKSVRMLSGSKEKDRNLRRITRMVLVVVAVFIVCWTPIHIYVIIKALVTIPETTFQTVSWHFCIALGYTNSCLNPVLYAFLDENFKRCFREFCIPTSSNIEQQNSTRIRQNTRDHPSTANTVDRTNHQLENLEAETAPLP
T1 sequence (P41143 whole entry): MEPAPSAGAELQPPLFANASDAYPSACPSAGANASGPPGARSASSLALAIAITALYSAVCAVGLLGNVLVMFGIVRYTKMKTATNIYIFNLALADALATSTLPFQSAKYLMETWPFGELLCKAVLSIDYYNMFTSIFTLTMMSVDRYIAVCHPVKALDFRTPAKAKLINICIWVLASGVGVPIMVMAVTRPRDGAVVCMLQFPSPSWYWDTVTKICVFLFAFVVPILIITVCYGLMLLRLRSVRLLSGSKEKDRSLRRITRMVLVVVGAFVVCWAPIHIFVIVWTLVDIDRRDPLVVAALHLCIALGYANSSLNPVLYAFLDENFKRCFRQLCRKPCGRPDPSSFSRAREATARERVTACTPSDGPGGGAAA
CYP2C9, sequence (P11712 whole entry): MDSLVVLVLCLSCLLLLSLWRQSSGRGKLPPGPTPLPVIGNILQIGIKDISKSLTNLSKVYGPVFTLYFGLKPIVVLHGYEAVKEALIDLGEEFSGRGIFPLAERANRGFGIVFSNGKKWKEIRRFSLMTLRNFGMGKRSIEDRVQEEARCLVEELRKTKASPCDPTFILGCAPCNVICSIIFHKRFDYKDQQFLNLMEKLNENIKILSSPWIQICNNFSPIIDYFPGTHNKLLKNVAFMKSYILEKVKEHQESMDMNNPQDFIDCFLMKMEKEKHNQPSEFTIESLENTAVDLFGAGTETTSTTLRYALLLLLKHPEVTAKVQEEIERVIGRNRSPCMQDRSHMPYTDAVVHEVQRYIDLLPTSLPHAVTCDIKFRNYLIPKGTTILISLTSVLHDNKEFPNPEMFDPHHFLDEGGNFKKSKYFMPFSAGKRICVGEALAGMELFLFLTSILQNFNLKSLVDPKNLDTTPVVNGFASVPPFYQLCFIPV
T2 sequence (P41145 whole entry): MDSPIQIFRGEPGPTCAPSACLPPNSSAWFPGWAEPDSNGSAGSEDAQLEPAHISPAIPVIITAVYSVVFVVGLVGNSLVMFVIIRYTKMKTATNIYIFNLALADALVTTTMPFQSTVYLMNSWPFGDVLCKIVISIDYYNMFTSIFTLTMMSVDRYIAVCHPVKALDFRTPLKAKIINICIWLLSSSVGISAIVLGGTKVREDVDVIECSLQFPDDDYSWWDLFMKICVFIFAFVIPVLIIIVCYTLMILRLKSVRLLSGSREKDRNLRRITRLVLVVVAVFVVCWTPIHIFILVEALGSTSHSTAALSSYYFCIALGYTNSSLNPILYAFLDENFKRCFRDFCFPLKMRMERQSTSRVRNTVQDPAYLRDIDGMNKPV
T4 sequence (P41145 whole entry): as above
T5 sequence (P10635 whole entry): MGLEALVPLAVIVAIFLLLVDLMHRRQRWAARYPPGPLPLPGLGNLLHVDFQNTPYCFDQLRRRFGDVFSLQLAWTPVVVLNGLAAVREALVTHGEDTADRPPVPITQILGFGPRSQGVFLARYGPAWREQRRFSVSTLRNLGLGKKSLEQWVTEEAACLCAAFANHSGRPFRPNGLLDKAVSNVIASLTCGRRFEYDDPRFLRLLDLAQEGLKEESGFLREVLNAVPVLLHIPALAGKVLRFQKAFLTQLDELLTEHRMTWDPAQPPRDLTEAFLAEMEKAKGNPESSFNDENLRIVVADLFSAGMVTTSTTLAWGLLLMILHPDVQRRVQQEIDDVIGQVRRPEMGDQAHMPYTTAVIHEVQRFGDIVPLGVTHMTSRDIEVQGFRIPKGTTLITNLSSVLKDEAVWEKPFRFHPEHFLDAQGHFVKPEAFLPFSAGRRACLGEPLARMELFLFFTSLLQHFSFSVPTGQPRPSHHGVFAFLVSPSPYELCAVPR

Structure (SMILES) | Ki [1] | EC50 (cloned human κ receptors) | Ki [2] | IC50 (CYP2C9) | IC50 (CYP3A4) | Ki [3] | IC50 (CYP2D6) | activity toward the cytochrome P450 (summary in words) [4] | Ki [2, 5] | IC50 at 15 min (CYP2D6; human, pH 7.4, probe MAMC (1 µM)) | Ki ([1]; inhibition of [3H]diprenorphine binding, cloned human δ receptor, read-out: Ki(δ))
CN(C(=O)Cc1ccc(CNS(=O)(=O)c2cccs2)cc1)[C@H](CN1CC[C@H](O)C1)c1ccccc1 [Example 22, N-{2-[3-(S)-hydroxy-pyrrolidin-1-yl]-1-(S)-Phenyl-ethyl}-N-methyl-2-{4-[(thiophene-2-sulfonylamino)-methyl]-phenyl}-acetamide hydrochloride] | 0.056 µM | 0.0049 µM | 1.1 µM | > 10 µM | 4.4 µM | 0.0029 µM | 5.8 µM |  |  |  | 
Cc1noc(C)c1S(=O)(=O)NCc1ccc(CC(=O)N(C)[C@H](CN2CC[C@H](O)C2)c2ccccc2)cc1 [Example 23, 2-{4-[(3,5-dimethyl-isoxazole-4-sulfonylamino)-methyl]-phenyl}-N-{2-[3-(S)-hydroxy-pyrrolidin-1-yl]-1-(S)-phenyl-ethyl}-N-methyl-acetamide hydrochloride] | 0.32 µM | 0.052 µM | 1.4 µM | > 10 µM | 4.3 µM | 0.025 µM | 11 µM |  |  |  | 
CN(C(=O)Cc1ccc(CN(C)S(C)(=O)=O)cc1)[C@H](CN1CC[C@H](O)C1)c1ccccc1.Cl [Example 24, N-{2-[3-(S)-hydroxy-pyrrolidin-1-yl]-1-(S)-phenyl-ethyl}-2-{4-[(methanesulfonyl-methyl-amino)-methyl]-phenyl}-N-methyl-acetamide hydrochloride] | 0.54 µM | 0.055 µM | 0.2 µM | > 10 µM | > 10 µM | 0.014 µM | > 10 µM | metabolically stable in regard to their activity toward the cytochrome P450 |  |  | 
CN(C(=O)Cc1ccc(CCNS(C)(=O)=O)cc1)[C@H](CN1CC[C@H](O)C1)c1ccccc1.Cl [Example 26, N-{2-[3-(S)-hydroxy-pyrrolidin-1-yl]-1-(S)-phenyl-ethyl}-2-[4-(2-methanesulfonylamino-ethyl)-phenyl]-N-methyl-acetamide hydrochloride] | 0.11 µM |  |  | > 10 µM | > 10 µM |  |  | metabolically stable in regard to their activity toward the cytochrome P450 | 0.79 µM | 10 µM | 
CN(C(=O)Cc1ccc(CCCNS(C)(=O)=O)cc1)[C@H](CN1CC[C@H](O)C1)c1ccccc1.Cl [Example 27, N-{2-[3-(S)-hydroxy-pyrrolidin-1-yl]-1-(S)-phenyl-ethyl}-2-[4-(3-methanesulfonylamino-propyl)-phenyl]-N-methyl-acetamide hydrochloride] |  |  |  | > 10 µM | > 10 µM |  | > 10 µM | metabolically stable in regard to their activity toward the cytochrome P450 | 0.32 µM |  | 0.24 µM
CC(C)[C@@H](CN1CC[C@H](O)C1)N(C)C(=O)Cc1ccc(CNS(C)(=O)=O)cc1.O=C(O)C(F)(F)F [Example 28, N-{1-[3-(S)-hydroxy-pyrrolidin-1-ylmethyl]-2-methyl-(S)-propyl}-2-[4-(methanesulfonylamino-methyl)-phenyl]-N-methyl-acetamide trifluoroacetate] | > 3 µM | 0.079 µM | > 3 µM | > 10 µM | > 10 µM | 0.0062 µM | > 10 µM | metabolically stable in regard to their activity toward the cytochrome P450 |  |  | 
CS(=O)(=O)NCc1ccc(CC(=O)N2CCCC[C@H]2CN2CC[C@H](O)C2)cc1.O=C(O)C(F)(F)F [Example 29, N-[4-(2-{2-[3-(S)-hydroxy-pyrrolidin-1-ylmethyl]-(S)-piperidin-1-yl}-2-oxo-ethyl)-benzyl]-methanesulfonamide trifluoroacetate] | > 3 µM | 0.027 µM | > 3 µM | > 10 µM | > 10 µM | 0.0021 µM | > 10 µM | metabolically stable in regard to their activity toward the cytochrome P450 |  |  | 
